Here are results for 5 molecules from patent US8309353B2, “Method for induction of differentiation of ES cell” (Kumamoto University, priority 2007, dated 2012).

For one assay, the system named is mouse ES cells (SK7). As to the kind of experiment: Immunohistochemical analysis of AFP-, Pdx1/GFP- and Alb-expressing cells in mouse ES cells differentiated on M15 cells. In kind it is cell-based. Conditions: for number of AFP-positive cells: factor added after d4, 10% KSR, 2,000 mg/L glucose (FIG. 3); for AFP expression, one factor added: one factor added d4 to d8, KSR, glucose 2,000 mg/L (FIG. 2B). The procedure: A previously reported SK7 cell line (mouse ES cells) having a Pdx1 promoter-derived GFP reporter-introduced gene was used (International Publication WO2006/126574). The SK7 ES cells were maintained on mouse embryonic fibroblasts (MEF), using a Glasgow minimum essential medium (Invitrogen) supplemented with 1,000 units/mL leukemia inhibitory factor (Chemicon), 15% KSR (knockout serum replacement; Gibco), 1% fetal bovine serum (FBS; Hyclone), 100 μM nonessential amino acid (Invitrogen), 2 mM L-glutamine (Invitrogen), 1 mM sodium pyruvate (Invitrogen), 50 units/mL penicillin, 50 μg/mL streptomycin (Invitrogen) and 100 μM β-mercaptoethanol.
Thereafter, the ES cells (the number of cells: 5,000 and 20,000, respectively) were inoculated on a 24-well or 6-well plate (Nunc) that had previously been coated with the M15 cells. Subsequently, using DMEM containing 100 μM nonessential amino acid, 2 mM L-glutamine, 50 units/mL penicillin, 50 μg/mL streptomycin and 100 μM β-mercaptoethanol, the cells were cultured in a differentiation culture solution containing 10% FBS and 4,500 mg/L glucose from the initial day of culture (d0) to day 4 (d4), and after d4, the cells were then cultured in another culture solution containing 10% KSR and 2,000 mg/L glucose. Thus, the cells were cultured for a maximum of 30 days. In order to induce the […] endoderm, activin A (20 ng/mL) and bFGF (50 ng/mL) were added during the period from d0 to d4. Moreover, HGF (10 ng/mL) and dexamethasone (1 μM) were added during the period from d4 to d30. The culture solution was replaced with a fresh one containing a growth factor every two days. The details of such growth factor will be described at the end of the diferentiation section.
Recombinant human activin A (R&D Systems): 20 ng/mL; recombinant human bFGF (Peprotech): 50 ng/mL; recombinant human BMP4 (R&D Systems): 50 ng/mL; SU5402 (Mohammadi, et al., (1997). Science 276, 955-60.) (Calbiochem): 10 μM; recombinant mouse Noggin/Fc Chimera (R&D Systems): 100 ng/mL; recombinant human hepatic cell growth factor (HGF, Peprotech): 10 ng/mL; dexamethasone (Dex, Sigma): 1 μM; recombinant human oncostatin M (OSM, Sigma): 10 ng/mL.
For whole mount immunocytochemical analysis, ES cells were inoculated on 24-well Thennanox coverslips (Nunc). Using TCS-SP2 Spectral Confocal Scanning System (Leica), a confocal image was obtained. Using IX 71 Inverted (Olympus), a phase-contrast image was obtained. The following antibodies were used in detection: mouse anti-GFP (Roche), rabbit anti-α-fetoprotein (AFP, Biomeda), goat anti-albumin (Sigma), fluorescein isothiocyanate (FITC)-labeled Dolichos biflorus agglutinin (DBA) lectin (Sigma), rabbit anti-α-1-anti-trypsin (Sigma), rabbit anti-CYP3A2 (Biomol), rabbit anti-CYP7A1 (Santa Cruz), and mouse anti-Oct3/4 (Santa Cruz). As secondary antibodies, an Alexa568-labeled goat anti-rabbit antibody, donkey anti-goat antibody (Molecular Probes), and an Alexa488-labeled goat anti-mouse antibody, goat anti-rabbit antibody, and donkey anti-goat antibody (Molecular Probes) were used. The cells were subjected to counterstaining using DAPI (Roche). In order to quantify the number of the Afp-expressing cells of FIG. 3B, the region of an Afp-positive stained image was analyzed using Lumina Vision program (Mitani Corporation).

The test system of assay [1] is mouse ES cell-derived hepatic cells. The experiment in a line: Albumin secretion analysis by ELISA. In kind it is cell-based. The protocol:
The medium was replaced with a fresh one, and 24 hours later, the conditioned medium was recovered. Using Lebis ELISA kit (Shibayagi), albumin secretion was analyzed.
It has been reported that OsM induces maturation of mouse fetal liver cells (Kamiya, A., Kinoshita, T. & Miyajima, A. (2001) Oncostatin M and hepatocyte growth factor induce hepatic maturation via distinct signaling pathways. FEBS Lett 492, 90-94). Thus, the influence of OsM on albumin secretion was analyzed by ELISA. The effect of OsM to enhance albumin secretion was not observed until […].

In the case of `Cc1c[nH]c(/C=C2\C(=O)Nc3ccccc32)c1CCC(=O)O` [SU5402, reference compound], the “number of AFP-positive cells” value with mouse ES cells (SK7) is reported as “decreased”.

For the molecule “HGF: recombinant human hepatic cell growth factor (Peprotech)”, the “AFP expression, one factor added” value with mouse ES cells (SK7) is listed as “promoted in the order of Dex>HGF>OsM”.

For the molecule Noggin, the “number of AFP-positive cells” value with mouse ES cells (SK7) is “almost all AFP-expressing cells disappeared”.

As to “bFGF: recombinant human bFGF (Peprotech)”, in the assay on mouse ES cells (SK7), the “number of AFP-positive cells” value was “increased”. In addition, the “AFP-expressing cells when bFGF was added to Noggin” value with mouse ES cells (SK7) (in the presence of Noggin, after d4, 10% KSR, 2,000 mg/L glucose (FIG. 3)) was “recovered”.

B1: OsM: recombinant human oncostatin M (Sigma) (protein, UniProt P13725 26-221, looked up)
Oncostatin-M: AAIGSCSKEYRVLLGQLQKQTDLMQDTSRLLDPYIRIQGLDVPKLREHCRERPGAFPSEETLRGLGRRGFLQTLNATLGCVLHRLADLEQRLPKAQDLERSGLNIEDLEKLQMARPNILGLRNNIYCMAQLLDNSDTAEPTKAGRGASQPPTPTPASDAFQRKLEGCRFLHGYHRFMHSVGRVFSKWGESPNRSRR
As to B1, the “AFP expression, one factor added” value in the assay with mouse ES cells (SK7) was “promoted in the order of Dex>HGF>OsM”. Moreover, in assay [1] (d50 and d60, medium with OsM, Dex and HGF versus control medium with only Dex and HGF, 24 hours), the “increase of albumin secretion” value is reported as 2 times. In addition, the “effect to enhance albumin secretion” value in assay [1] (until c40, OsM added to Dex and HGF) was “not observed”.
